The values that follow come from ChEMBL document CHEMBL1275437, “Prevalence of serotype 19A Streptococcus pneumoniae among isolates from U.S. children in 2005-2006 and activity of faropenem” (2008).

Converted amounts (≈) assume the structure as drawn. Some results are limits rather than exact numbers.

The test system of experiment [1] is Streptococcus pneumoniae. Description: Antibacterial activity against Streptococcus pneumoniae serotype 15A by broth microdilution method in presence of clavulanate. The class given is functional. A general note: Dilution methods test growth across graded concentrations, often in twofold steps.
Experiment [2] relates to Streptococcus pneumoniae. Description: Antibacterial activity against Streptococcus pneumoniae serotype 33 by broth microdilution method in presence of clavulanate. The class given is functional.
Experiment [3] deals with Streptococcus pneumoniae. Description: Antibacterial activity against Streptococcus pneumoniae serotype 22 by broth microdilution method in presence of clavulanate. The class given is functional.
Experiment [4] has as its system Streptococcus pneumoniae. Description: Antibacterial activity against Streptococcus pneumoniae serotype 19A assessed as percent susceptible isolates by broth microdilution method in presence of clavulanate. Type of experiment: functional.
Experiment [5] deals with Streptococcus pneumoniae. Description: Antibacterial activity against Streptococcus pneumoniae serotype 6A/C assessed as percent susceptible isolates by broth microdilution method in presence of clavulanate. Type of experiment: functional.
Experiment [6] has as its system Streptococcus pneumoniae. Kind of experiment: Antibacterial activity against Streptococcus pneumoniae serotype 3 assessed as percent susceptible isolates by broth microdilution method in presence of clavulanate. The class given is functional.
For experiment [7], the system named is Streptococcus pneumoniae. Description: Antibacterial activity against Streptococcus pneumoniae serotype 19F assessed as percent susceptible isolates by broth microdilution method in presence of clavulanate. The class given is functional.
Experiment [8] relates to Streptococcus pneumoniae. Kind of experiment: Antibacterial activity against Streptococcus pneumoniae serotype 35B assessed as percent susceptible isolates by broth microdilution method in presence of clavulanate. Type of experiment: functional.
In experiment [9] the test system is Streptococcus pneumoniae. Description: Antibacterial activity against Streptococcus pneumoniae serotype 23A assessed as percent susceptible isolates by broth microdilution method in presence of clavulanate. Type of experiment: functional.
The test system of experiment [10] is Streptococcus pneumoniae. Description: Antibacterial activity against Streptococcus pneumoniae serotype 15A assessed as percent susceptible isolates by broth microdilution method in presence of clavulanate. The class given is functional.
Experiment [11] concerns Streptococcus pneumoniae. Description: Antibacterial activity against Streptococcus pneumoniae serotype 33 assessed as percent susceptible isolates by broth microdilution method in presence of clavulanate. Type of experiment: functional.
Experiment [12] deals with Streptococcus pneumoniae. Description: Antibacterial activity against Streptococcus pneumoniae serotype 22 assessed as percent susceptible isolates by broth microdilution method in presence of clavulanate. Type of experiment: functional.
Experiment [13] deals with Streptococcus pneumoniae. Description: Antibacterial activity against Streptococcus pneumoniae serotype 19A assessed as percent resistant isolates by broth microdilution method in presence of clavulanate. Type of experiment: functional.
Experiment [14] relates to Streptococcus pneumoniae. Description: Antibacterial activity against Streptococcus pneumoniae serotype 6A/C assessed as percent resistant isolates by broth microdilution method in presence of clavulanate. The class given is functional.
Experiment [15] deals with Streptococcus pneumoniae. Kind of experiment: Antibacterial activity against Streptococcus pneumoniae serotype 3 assessed as percent resistant isolates by broth microdilution method in presence of clavulanate. The class given is functional.
Experiment [16] relates to Streptococcus pneumoniae. Description: Antibacterial activity against Streptococcus pneumoniae serotype 19F assessed as percent resistant isolates by broth microdilution method in presence of clavulanate. Type of experiment: functional.
In experiment [17] the test system is Streptococcus pneumoniae. Description: Antibacterial activity against Streptococcus pneumoniae serotype 35B assessed as percent resistant isolates by broth microdilution method in presence of clavulanate. The class given is functional.
In experiment [18] the test system is Streptococcus pneumoniae. Description: Antibacterial activity against Streptococcus pneumoniae serotype 23A assessed as percent resistant isolates by broth microdilution method in presence of clavulanate. The class given is functional.
Experiment [19] concerns Streptococcus pneumoniae. Kind of experiment: Antibacterial activity against Streptococcus pneumoniae serotype 15A assessed as percent resistant isolates by broth microdilution method in presence of clavulanate. Type of experiment: functional.
Experiment [20] has as its system Streptococcus pneumoniae. Description: Antibacterial activity against Streptococcus pneumoniae serotype 33 assessed as percent resistant isolates by broth microdilution method in presence of clavulanate. The class given is functional.
Experiment [21] concerns Streptococcus pneumoniae. Description: Antibacterial activity against Streptococcus pneumoniae serotype 22 assessed as percent resistant isolates by broth microdilution method in presence of clavulanate. The class given is functional.
Experiment [22] deals with Streptococcus pneumoniae. Description: Antibacterial activity against Streptococcus pneumoniae serotype 19A by broth microdilution method in presence of clavulanate. Type of experiment: functional.
The subject of experiment [23] is Streptococcus pneumoniae. Kind of experiment: Antibacterial activity against Streptococcus pneumoniae serotype 6A/C by broth microdilution method in presence of clavulanate. The class given is functional.
Experiment [24] relates to Streptococcus pneumoniae. Kind of experiment: Antibacterial activity against Streptococcus pneumoniae serotype 3 by broth microdilution method in presence of clavulanate. Type of experiment: functional.
The subject of experiment [25] is Streptococcus pneumoniae. Description: Antibacterial activity against Streptococcus pneumoniae serotype 19F by broth microdilution method in presence of clavulanate. Type of experiment: functional.
The test system of experiment [26] is Streptococcus pneumoniae. Description: Antibacterial activity against Streptococcus pneumoniae serotype 35B by broth microdilution method in presence of clavulanate. Type of experiment: functional.
Experiment [27] deals with Streptococcus pneumoniae. Description: Antibacterial activity against Streptococcus pneumoniae serotype 23A by broth microdilution method in presence of clavulanate. The class given is functional.
Experiment [28] in a line: T>MIC in mouse neutropenic thigh infection model infected with multidrug-resistant Streptococcus pneumoniae. Type of experiment: functional, Thigh muscle.
In experiment [29] the test system is Streptococcus pneumoniae. Kind of experiment: Antibacterial activity against Streptococcus pneumoniae serotype 19A by broth microdilution method. Type of experiment: functional.
For experiment [30], the system named is Streptococcus pneumoniae. Kind of experiment: Antibacterial activity against Streptococcus pneumoniae serotype 6A/C by broth microdilution method. The class given is functional.
Experiment [31] deals with Streptococcus pneumoniae. Kind of experiment: Antibacterial activity against Streptococcus pneumoniae serotype 3 by broth microdilution method. The class given is functional.
In experiment [32] the test system is Streptococcus pneumoniae. Kind of experiment: Antibacterial activity against Streptococcus pneumoniae serotype 19F by broth microdilution method. The class given is functional.
Experiment [33] deals with Streptococcus pneumoniae. Kind of experiment: Antibacterial activity against Streptococcus pneumoniae serotype 35B by broth microdilution method. The class given is functional.
For experiment [34], the system named is Streptococcus pneumoniae. Kind of experiment: Antibacterial activity against Streptococcus pneumoniae serotype 23A by broth microdilution method. Type of experiment: functional.
The subject of experiment [35] is Streptococcus pneumoniae. Kind of experiment: Antibacterial activity against Streptococcus pneumoniae serotype 15A by broth microdilution method. Type of experiment: functional.
Experiment [36] deals with Streptococcus pneumoniae. Kind of experiment: Antibacterial activity against Streptococcus pneumoniae serotype 33 by broth microdilution method. Type of experiment: functional.
For experiment [37], the system named is Streptococcus pneumoniae. Description: Antibacterial activity against Streptococcus pneumoniae serotype 22 by broth microdilution method. Type of experiment: functional.
Experiment [38] concerns Streptococcus pneumoniae. Description: Antibacterial activity against multidrug-resistant Streptococcus pneumoniae infected in mouse neutropenic thigh infection model. Type of experiment: functional. Particulars: Thigh muscle.
For experiment [39], the system named is Streptococcus pneumoniae. Description: Antibacterial activity against non-multidrug-resistant Streptococcus pneumoniae. The class given is functional.
The nature of experiment [40]: T>MIC in mouse prophylaxis model infected with Bacillus anthracis. The class given is functional.
Experiment [41] relates to Streptococcus pneumoniae. Description: Antibacterial activity against multidrug-resistant Streptococcus pneumoniae. Type of experiment: functional.

For orientation: MIC90 means the lowest concentration that inhibits either 90% of growth or 90% of the strains tested, depending on the study. As to `CC1(C)S[C@@H]2[C@H](NC(=O)[C@H](N)c3ccc(O)cc3)C(=O)N2[C@H]1C(=O)O` [AMOXICILLIN], the MIC90 is 0.25 µg/mL in the experiment on Streptococcus pneumoniae [1]; ≤ 0.12 µg/mL with Streptococcus pneumoniae [2]; ≤ 0.12 µg/mL with Streptococcus pneumoniae [3]; 8 µg/mL in the experiment with Streptococcus pneumoniae [22]; 1 µg/mL in the experiment on Streptococcus pneumoniae [23]; ≤ 0.12 µg/mL in the experiment on Streptococcus pneumoniae [24]. Besides, the MIC90 in the experiment on Streptococcus pneumoniae [25] was 16 µg/mL; with Streptococcus pneumoniae [26], 2 µg/mL; with Streptococcus pneumoniae [27], 0.25 µg/mL. Besides, the % susceptible isolates in the experiment with Streptococcus pneumoniae [4] was 62%; in the experiment on Streptococcus pneumoniae [5], 97%; with Streptococcus pneumoniae [6], 100%; with Streptococcus pneumoniae [7], 47%; in the experiment with Streptococcus pneumoniae [8], 100%; with Streptococcus pneumoniae [9] it was 100%. The % susceptible isolates in the experiment on Streptococcus pneumoniae [10], in the experiment with Streptococcus pneumoniae [11] and in the experiment with Streptococcus pneumoniae [12] was 100% each time. For the same compound, the % resistant isolates in the experiment with Streptococcus pneumoniae [13] turned out to be 35%; in the experiment with Streptococcus pneumoniae [14], 3%; with Streptococcus pneumoniae [15], 0%; in the experiment on Streptococcus pneumoniae [16], 48%; in the experiment with Streptococcus pneumoniae [17], 0%; with Streptococcus pneumoniae [18] it was 0%. Also, the % resistant isolates with Streptococcus pneumoniae [19], with Streptococcus pneumoniae [20] and with Streptococcus pneumoniae [21] was 0% each time.
As to `C[C@@H](O)[C@H]1C(=O)N2C(C(=O)O)=C([C@H]3CCCO3)S[C@H]12` [FAROPENEM], the “fT>MIC” value in experiment [28] was determined as 13.9%; in experiment [40] it was 16.4%. In addition, the MIC90 was determined as 1 µg/mL (≈ 3.5 µM) with Streptococcus pneumoniae [29]; 0.25 µg/mL (≈ 0.876 µM) against Streptococcus pneumoniae [30]; 0.015 µg/mL (≈ 0.0526 µM) in the experiment on Streptococcus pneumoniae [31]; 1 µg/mL (≈ 3.5 µM) with Streptococcus pneumoniae [32]; 0.5 µg/mL (≈ 1.75 µM) against Streptococcus pneumoniae [33]; 0.06 µg/mL (≈ 0.21 µM) in the experiment on Streptococcus pneumoniae [34]. The MIC90 against Streptococcus pneumoniae [35] was 0.12 µg/mL (≈ 0.421 µM); against Streptococcus pneumoniae [36], 0.015 µg/mL (≈ 0.0526 µM); in the experiment on Streptococcus pneumoniae [37], 0.015 µg/mL (≈ 0.0526 µM); against Streptococcus pneumoniae [38] it was > 2 µg/mL; in the experiment with Streptococcus pneumoniae [39], 0.25 µg/mL (≈ 0.876 µM); in the experiment with Streptococcus pneumoniae [41], 2 µg/mL (≈ 7.01 µM).
